For 10 compounds, EC50 results are on record in patent US20240294508A1, “RIP1 MODULATORS INCLUDING AZETIDINE CYCLIC UREAS, PREPARATIONS, AND USES THEREOF” (SIRONAX LTD., priority 2021, published 2024).

The experiment concerns HT-29 cells. Briefly: HT29 cells 0FBS assay in vitro: TNF-α/SMAC mimetic/zVAD-FMK induced necroptosis, CellTiter-Glo cell viability (RIP1 inhibitory activity). In kind it is cell-based. To be noted: Homo sapiens, FBS free medium, TNF-α (10 ng/ml) + SMAC mimetic (6 uM) + zVAD-FMK (10 μM), 20 hours, geometric mean EC50. An outline of the steps: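 Luminescent ATP read-out (CellTiter-Glo) gave viability of HT-29 cells after 20 h at 37° C in serum-free medium containing compound and a necroptosis cocktail of 10 ng/ml TNF-α, 6 uM SMAC mimetic and 10 μM zVAD-FMK. EC50s are geometric means of 10-point curves run in duplicate.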
On the technique in general: Cellular ATP, detected with luciferase, serves as a proxy for viable cell number.
Usually EC50 stands for the concentration needed to bring the measured effect to its halfway point. Turning to `Cc1cn(C)c(-c2cc(OC3CN(C(=O)N4N=CC[C@H]4c4cc(F)cc(C#N)c4)C3)c(F)cn2)n1` [Compound 23, (S)-3-(1-(3-((2-(1,4-dimethyl-1H-imidazol-2-yl)-5-fluoropyridin-4-yl)oxy)azetidine-1-carbonyl)-4,5-dihydro-1H-pyrazol-5-yl)-5-fluorobenzonitrile], the EC50 is 0.1 to 100 nM.
On to `Cn1ncc(C#N)c1-c1ncc(F)c(OC2CN(C(=O)N3N=CC[C@H]3c3cc(F)cc(C#N)c3)C2)n1` [Compound 8, (S)-5-(4-((1-(5-(3-cyano-5-fluorophenyl)-4,5-dihydro-1H-pyrazole-1-carbonyl)azetidin-3-yl)oxy)-5-fluoropyrimidin-2-yl)-1-methyl-1H-pyrazole-4-carbonitrile], for which the EC50 lay within 0.1 to 100 nM.
As to `Cc1nn(-c2cc(OC3CN(C(=O)N4N=CC[C@H]4c4cc(F)cc(C#N)c4)C3)c(F)cn2)c(C)c1C(=O)O` [Compound 83, (S)-1-(4-((1-(5-(3-cyano-5-fluorophenyl)-4,5-dihydro-1H-pyrazole-1-carbonyl)azetidin-3-yl)oxy)-5-fluoropyridin-2-yl)-3,5-dimethyl-1H-pyrazole-4-carboxylic acid], the EC50 lay in the range of 0.1 to 100 nM.
Then `Cc1c(C(N)=O)nn(C)c1-c1cc(OC2CN(C(=O)N3N=CC[C@H]3c3cc(F)cc(C#N)c3)C2)c(F)cn1` [Compound 58, (S)-5-(4-((1-(5-(3-cyano-5-fluorophenyl)-4,5-dihydro-1H-pyrazole-1-carbonyl)azetidin-3-yl)oxy)-5-fluoropyridin-2-yl)-1,4-dimethyl-1H-pyrazole-3-carboxamide], with 0.1 to 100 nM; and `Cc1ncc(C2CC=NN2C(=O)N2CC(Oc3nc(-c4c(C)cnn4C)ncc3F)C2)s1` (stereo not shown) [Compound 109, (3-((2-(1,4-dimethyl-1H-pyrazol-5-yl)-5-fluoropyrimidin-4-yl)oxy)azetidin-1-yl)(5-(2-methylthiazol-5-yl)-4,5-dihydro-1H-pyrazol-1-yl)methanone], with 0.1 to 100 nM; and `Cc1ncc(C2CC=NN2C(=O)N2CC(Oc3cc(-c4c(C)c(N)nn4C)ncc3F)C2)s1` (stereo not shown) [Compound 107, (3-((2-(3-amino-1,4-dimethyl-1H-pyrazol-5-yl)-5-fluoropyridin-4-yl)oxy)azetidin-1-yl)(5-(2-methylthiazol-5-yl)-4,5-dihydro-1H-pyrazol-1-yl) methanone], with 0.1 to 100 nM.
As for `Cc1nn(-c2cc(OC3CN(C(=O)N4N=CC[C@H]4c4cc(F)cc(C#N)c4)C3)c(F)cn2)c(C)c1C(N)=O` [Compound 70, (S)-1-(4-((1-(5-(3-cyano-5-fluorophenyl)-4,5-dihydro-1H-pyrazole-1-carbonyl)azetidin-3-yl)oxy)-5-fluoropyridin-2-yl)-3,5-dimethyl-1H-pyrazole-4-carboxamide], the EC50 was 0.1 to 100 nM.
Consider `Cc1nn(-c2cc(OC3CN(C(=O)N4N=CC[C@H]4c4ccccc4)C3)c(F)cn2)c(C)c1C(=O)O` [Compound 84, (S)-1-(5-fluoro-4-((1-(5-phenyl-4,5-dihydro-1H-pyrazole-1-carbonyl)azetidin-3-yl)oxy)pyridin-2-yl)-3,5-dimethyl-1H-pyrazole-4-carboxylic acid], for which the EC50 is 0.1 to 100 nM.
Then `Cc1nn(-c2cc(OC3CN(C(=O)N4N=CC[C@H]4c4cccc(F)c4)C3)c(F)cn2)c(C)c1C(=O)NCCO` [Compound 75, (S)-1-(5-fluoro-4-((1-(5-(3-fluorophenyl)-4,5-dihydro-1H-pyrazole-1-carbonyl)azetidin-3-yl)oxy)pyridin-2-yl)-N-(2-hydroxyethyl)-3,5-dimethyl-1H-pyrazole-4-carboxamide], with 0.1 to 100 nM; and `Cc1cnn(C)c1-c1ccc(F)c(OC2CN(C(=O)N3N=CC[C@H]3c3cncc(C#N)c3)C2)n1` [Compound 55, (S)-5-(1-(3-((6-(1,4-dimethyl-1H-pyrazol-5-yl)-3-fluoropyridin-2-yl)oxy)azetidine-1-carbonyl)-4,5-dihydro-1H-pyrazol-5-yl)nicotinonitrile], with 0.1 to 100 nM.
